The values below come from patent US8440698B2, “3-(4-((1H-imidazol-1-yl)methyl)phenyl)-5-aryl-1,2,4-oxadiazole derivatives as sphingosine-1 phosphate receptors modulators” (Allergan, Inc., priority 2010, dated 2013).

The term EC50 denotes the concentration giving half of the maximal effect.

This assay concerns the target T1, human S1P1 receptor (Homo sapiens, UniProt P21453).
T1 construct: expressed in transfected cells; membranes used
Put plainly: GTP γ35S binding assay for S1P1 activity. It is filed as biochemical. The following applies: for Emax at 5 µM: intrinsic activity at 5 μM, read-out: % S1P1 STIMULATION @ 5 μM; for EC50: membranes of cells stably expressing S1P1, test concentrations 0.08 to 5,000 nM, read-out: S1P1 GTPγ^35S EC50. The protocol:
Novel compounds were synthesized and tested for S1P1 activity using the GTP γ^35S binding assay. These compounds may be assessed for their ability to activate or block activation of the human S1P1 receptor in cells stably expressing the S1P1 receptor. GTP γ^35S binding was measured in the medium containing (mM) HEPES 25, pH 7.4, MgCl2 10, NaCl 100, dithitothreitol 0.5, digitonin 0.003%, 0.2 nM GTP γ^35S, and 5 μg membrane protein in a volume of 150 μl. Test compounds were included in the concentration range from 0.08 to 5,000 nM unless indicated otherwise. Membranes were incubated with 100 μM 5′-adenylylimmidodiphosphate for 30 min, and subsequently with 10 μM GDP for 10 min on ice. Drug solutions and membrane were mixed, and then reactions were initiated by adding GTP γ^35S and continued for 30 min at 25° C. Reaction mixtures were filtered over Whatman GF/B filters under vacuum, and washed three times with 3 mL of ice-cold buffer (HEPES 25, pH7.4, MgCl2 10 and NaCl 100). Filters were dried and mixed with scintillant, and counted for ^35S activity using a β-counter. Agonist-induced GTP γ^35S binding was obtained by subtracting that in the absence of agonist. Binding data were analyzed using a non-linear regression method. In case of antagonist assay, the reaction mixture contained 10 nM S1P in the presence of test antagonist at concentrations ranging from 0.08 to 5000 nM.
(In general: GTPγS is a poorly hydrolysed GTP analogue; its binding reports G protein activation.)

T1 sequence (P21453 whole entry): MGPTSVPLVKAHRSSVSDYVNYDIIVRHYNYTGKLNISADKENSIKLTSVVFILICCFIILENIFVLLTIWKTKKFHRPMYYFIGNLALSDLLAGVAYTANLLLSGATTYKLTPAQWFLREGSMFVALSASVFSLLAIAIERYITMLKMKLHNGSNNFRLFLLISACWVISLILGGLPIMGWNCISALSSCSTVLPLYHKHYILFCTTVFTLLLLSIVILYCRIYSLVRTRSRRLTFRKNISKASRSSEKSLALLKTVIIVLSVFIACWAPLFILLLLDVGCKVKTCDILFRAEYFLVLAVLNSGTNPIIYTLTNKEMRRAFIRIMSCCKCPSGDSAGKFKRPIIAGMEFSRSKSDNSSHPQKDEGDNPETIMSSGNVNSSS

For `CC(C)Oc1ccc(-c2nc(-c3ccc(Cn4ccnc4)cc3Cl)no2)cc1[N+](=O)[O-]` [3-[2-chloro-4-(1H-imidazol-1-ylmethyl)phenyl]-5-(4-isopropoxy-3-nitrophenyl)-1,2,4-oxadiazole], the Emax at 5 µM is 92.3% and the EC50 came to 8.79 nM. Turning to `CC(C)Oc1ccc(-c2nc(-c3ccc(Cn4ccnc4)cc3Cl)no2)cc1C(F)(F)F` [3-[2-chloro-4-(1H-imidazol-1-ylmethyl)phenyl]-5-[4-isopropoxy-3-(trifluoromethyl)phenyl]-1,2,4-oxadiazole], the Emax at 5 µM was determined as 79.6% and the EC50 is 3.55 nM. `Cc1cc(-c2nc(-c3ccc(Cn4ccnc4)cc3C(F)(F)F)no2)ccc1OC(C)C` [3-[4-(1H-imidazol-1-ylmethyl)-2-(trifluoromethyl)phenyl]-5-(4-isopropoxy-3-methylphenyl)-1,2,4-oxadiazole]: the Emax at 5 µM was 7.4%. Take `CC(C)Oc1ccc(-c2nc(-c3ccc(Cn4ccnc4)cc3C(F)(F)F)no2)cc1[N+](=O)[O-]` [3-[4-(1H-imidazol-1-ylmethyl)-2-(trifluoromethyl)phenyl]-5-(4-isopropoxy-3-nitrophenyl)-1,2,4-oxadiazole]: the Emax at 5 µM turned out to be 79.4% and the EC50 is 6.37 nM.

In the case of `CC(C)Oc1ccc(-c2nc(-c3ccc(Cn4ccnc4)cc3C(F)(F)F)no2)cc1C(F)(F)F` [3-[4-(1H-imidazol-1-ylmethyl)-2-(trifluoromethyl)phenyl]-5-[4-isopropoxy-3-(trifluoromethyl)phenyl]-1,2,4-oxadiazole], the Emax at 5 µM amounted to 80.9% and the EC50 is 62.4 nM.

As for `CC(C)Oc1ccc(-c2nc(-c3ccc(Cn4ccnc4)cc3C(F)(F)F)no2)cc1Br` [5-(3-Bromo-4-isopropoxy-phenyl)-3-(4-imidazol-1-ylmethyl-2-trifluoromethyl-phenyl)-[1,2,4]oxadiazole], the Emax at 5 µM was found to be 100% and the EC50 stood at 102 nM. In the same order, the values of `CC(C)COc1ccc(-c2nc(-c3ccc(Cn4ccnc4)cc3C(F)(F)F)no2)cc1Br` [5-(3-bromo-4-isobutoxyphenyl)-3-[4-(1H-imidazol-1-ylmethyl)-2-(trifluoromethyl)phenyl]-1,2,4-oxadiazole] are 98.3% and 144 nM. As to `CC(C)Oc1ccc(-c2nc(-c3ccc(Cn4ccnc4)cc3Cl)no2)cc1Br` [5-(3-bromo-4-isopropoxyphenyl)-3-[2-chloro-4-(1H-imidazol-1-ylmethyl)phenyl]-1,2,4-oxadiazole], the Emax at 5 µM worked out at 102% and the EC50 turned out to be 29.7 nM. In the same order, the values of `CC(C)Oc1ccc(-c2nc(-c3ccc(Cn4ccnc4)cc3C(F)(F)F)no2)cc1C#N` [5-[3-(4-Imidazol-1-ylmethyl-2-trifluoromethyl-phenyl)-[1,2,4]oxadiazol-5-yl]-2-isopropoxy-benzonitrile] are 97.6% and 5.22 nM. Regarding `FC(F)(F)c1cc(Cn2ccnc2)ccc1-c1noc(-c2ccc(OC3CC3)c(Br)c2)n1` [5-[3-bromo-4-(cyclopropyloxy)phenyl]-3-[4-(1H-imidazol-1-ylmethyl)-2-(trifluoromethyl)phenyl]-1,2,4-oxadiazole], the Emax at 5 µM is 89.6% and the EC50 is 119 nM. With `CC(C)Oc1ccc(-c2nc(-c3ccc(Cn4ccnc4)cc3Cl)no2)cc1C#N` [5-{3-[2-chloro-4-(1H-imidazol-1-ylmethyl)phenyl]-1,2,4-oxadiazol-5-yl}-2-isopropoxybenzonitrile], the Emax at 5 µM amounted to 94.9% and the EC50 amounted to 4.56 nM. In the case of `CC1CCCCN1c1ccc(-c2nc(-c3ccc(Cn4ccnc4)cc3)no2)cc1C#N` (stereo not drawn) [5-{3-[4-(1H-imidazol-1-ylmethyl)phenyl]-1,2,4-oxadiazol-5-yl}-2-(2-methylpiperidin-1-yl)benzonitrile], the Emax at 5 µM was determined as 99.9% and the EC50 was 130 nM. In the same order, the values of `Brc1cc(-c2nc(-c3ccc(Cn4ccnc4)cc3)no2)ccc1OC1CC1` [Compound 1, 5-(3-Bromo-4-cyclopropoxy-phenyl)-3-(4-imidazol-1-ylmethyl-phenyl)-[1,2,4]oxadiazole] are 99.9% and 14.4 nM. With `Cc1cc(Cn2ccnc2)ccc1-c1noc(-c2ccc(OC3CC3)c(Br)c2)n1` [Compound 2, 5-(3-Bromo-4-cyclopropoxy-phenyl)-3-(4-imidazol-1-ylmethyl-2-methyl-phenyl)-[1,2,4]oxadiazole], the Emax at 5 µM came to 96% and the EC50 turned out to be 32 nM.

As to `CC(C)Oc1ccc(-c2nc(-c3ccc(Cn4ccnc4)cc3)no2)cc1C(F)(F)F` [Compound 3, 3-(4-Imidazol-1-ylmethyl-phenyl)-5-(4-isopropoxy-3-trifluoromethyl-phenyl)-[1,2,4]oxadiazole], the Emax at 5 µM stood at 95.6% and the EC50 is 0.51 nM. In the same order, the values of `CC(C)COc1ccc(-c2nc(-c3ccc(Cn4ccnc4)cc3)no2)cc1C(F)(F)F` [Compound 4, 3-(4-Imidazol-1-ylmethyl-phenyl)-5-(4-isobutoxy-3-trifluoromethyl-phenyl)-[1,2,4]oxadiazole] are 72.2% and 998 nM.

As for `FC(F)(F)c1cc(-c2nc(-c3ccc(Cn4ccnc4)cc3)no2)ccc1OC1CCCCC1` [Compound 5, 5-(4-Cyclohexyloxy-3-trifluoromethyl-phenyl)-3-(4-imidazol-1-ylmethyl-phenyl)-[1,2,4]oxadiazole], the Emax at 5 µM stood at 91.8% and the EC50 stood at 149 nM. Turning to `Cc1cc(Cn2ccnc2)ccc1-c1noc(-c2ccc(OC(C)C)c(C(F)(F)F)c2)n1` [Compound 6, 3-(4-Imidazol-1-ylmethyl-2-methyl-phenyl)-5-(4-isopropoxy-3-trifluoromethyl-phenyl)-[1,2,4]oxadiazole], the Emax at 5 µM was 95.5% and the EC50 was determined as 3.38 nM. For `CC(C)Oc1ccc(-c2nc(-c3ccc(Cn4ccnc4)cc3)no2)cc1[N+](=O)[O-]` [Compound 7, 3-(4-Imidazol-1-ylmethyl-phenyl)-5-(4-isopropoxy-3-nitro-phenyl)-[1,2,4]oxadiazole], the Emax at 5 µM is 118% and the EC50 stood at 3.24 nM. In the same order, the values of `CC(C)COc1ccc(-c2nc(-c3ccc(Cn4ccnc4)cc3)no2)cc1C#N` [Compound 8, 5-[3-(4-Imidazol-1-ylmethyl-phenyl)-[1,2,4]oxadiazol-5-yl]-2-isobutoxy-benzonitrile] are 75.9% and 62 nM.

As for `CC(C)COc1ccc(-c2nc(-c3ccc(Cn4ccnc4)cc3)no2)cc1Br` [Compound 9, 5-(3-Bromo-4-isobutoxy-phenyl)-3-(4-imidazol-1-ylmethyl-phenyl)-[1,2,4]oxadiazole], the Emax at 5 µM was found to be 86.2% and the EC50 was 28.6 nM. In the same order, the values of `CC(C)Cc1ccc(-c2nc(-c3ccc(Cn4ccnc4)cc3)no2)cc1` [Compound 10, 3-(4-Imidazol-1-ylmethyl-phenyl)-5-(4-isobutyl-phenyl)-[1,2,4]oxadiazole] are 79.8% and 543 nM. On the same counts, the results for `CC(C)Oc1ccc(-c2nc(-c3ccc(Cn4ccnc4)cc3)no2)cc1` [Compound 11, 3-(4-Imidazol-1-ylmethyl-phenyl)-5-(4-isopropoxy-phenyl)-[1,2,4]oxadiazole] are 92.8% and 453 nM.
